Experimental data as given in ChEMBL document CHEMBL1201862, “PubChem BioAssay data set” (2004).
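Test compounds were applied to cells in 96-well plates for 48 hours at 5 doses. GI50 = concentration required for 50% inhibition of growth.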 Activity calls are given as the source filed them. Cut-off read from the data, not from the text of the source: active = GI50 up to about 1.1 µM and inactive = higher.

Legend:
Assay in all cases: NCI anticancer screen, dose series, 48 h
A549 = system: A549
EKVX = system: EKVX
HCT-116 = system: HCT-116
HOP-92 = system: HOP-92
IGROV-1 = system: IGROV-1
MCF7 = system: MCF7
MOLT-4 = system: MOLT-4
NCI-H460 = system: NCI-H460
NCI-H522 = system: NCI-H522
OVCAR-4 = system: OVCAR-4
PC-3 = system: PC-3
RXF 393 = system: RXF 393
SF-295 = system: SF-295
SK-MEL-28 = system: SK-MEL-28
SN12C = system: SN12C
SR = system: SR
SW-620 = system: SW-620
T47D = system: T47D
TK-10 = system: TK-10

Structure (SMILES): CC[N+](C)(CC)Cc1ccccc1[N+](=O)[O-]
- GI50 (A549): > 100 µM (inactive)
- GI50 (EKVX): 32.3 µM (inactive)
- GI50 (HCT-116): > 100 µM (inactive)
- GI50 (HOP-92): > 100 µM (inactive)
- GI50 (IGROV-1): > 100 µM (inactive)
- GI50 (MCF7): > 100 µM (inactive)
- GI50 (MOLT-4): > 100 µM (inactive)
- GI50 (NCI-H460): > 100 µM (inactive)
- GI50 (NCI-H522): > 100 µM (inactive)
- GI50 (OVCAR-4): > 100 µM (inactive)
- GI50 (PC-3): 44.8 µM (inactive)
- GI50 (RXF 393): > 100 µM (inactive)
- GI50 (SF-295): > 100 µM (inactive)
- GI50 (SK-MEL-28): > 100 µM (inactive)
- GI50 (SN12C): > 100 µM (inactive)
- GI50 (SR): > 100 µM (inactive)
- GI50 (SW-620): 87.7 µM (inactive)
- GI50 (T47D): > 100 µM (inactive)
- GI50 (TK-10): > 100 µM (inactive)

Structure (SMILES): CC1OC(OC2C(O)COC(OC3C(C)OC(OC4C(OC(=O)[C@]56CCC(C)(C)C[C@@H]5C5=CCC7[C@@]8(C)C[C@H](O)[C@H](OC9OC(CO)C(O)C(O)C9O)[C@@](C)(CO)[C@@H]8CC[C@@]7(C)[C@]5(C)CC6)OCC(O)C4O)C(O)C3OC3OCC(O)C(O)C3O)C2O)C(O)C(O)C1O (some centres not stated)
- GI50 (A549): 14 µM (inactive)
- GI50 (EKVX): 10.7 µM (inactive)
- GI50 (HCT-116): 19.9 µM (inactive)
- GI50 (HOP-92): 24.8 µM (inactive)
- GI50 (MCF7): 19.8 µM (inactive)
- GI50 (MOLT-4): 20.1 µM (inactive)
- GI50 (NCI-H460): 20.1 µM (inactive)
- GI50 (NCI-H522): 44.9 µM (inactive)
- GI50 (OVCAR-4): 20.1 µM (inactive)
- GI50 (PC-3): 14 µM (inactive)
- GI50 (RXF 393): 15.9 µM (inactive)
- GI50 (SF-295): 20.7 µM (inactive)
- GI50 (SK-MEL-28): 11.2 µM (inactive)
- GI50 (SN12C): 17.5 µM (inactive)
- GI50 (SR): 17.9 µM (inactive)
- GI50 (SW-620): 14.9 µM (inactive)
- GI50 (T47D): 20.2 µM (inactive)
- GI50 (TK-10): 17.3 µM (inactive)

Structure (SMILES): COc1ccc(NC(=S)NC(=O)c2ccc3c(c2)Sc2ccccc2O3)c([N+](=O)[O-])c1
- GI50 (A549): 42.1 µM (inactive)
- GI50 (HCT-116): 28.9 µM (inactive)
- GI50 (HOP-92): 19.2 µM (inactive)
- GI50 (IGROV-1): 18.7 µM (inactive)
- GI50 (MCF7): 27.6 µM (inactive)
- GI50 (MOLT-4): 34.4 µM (inactive)
- GI50 (NCI-H460): 43.9 µM (inactive)
- GI50 (NCI-H522): 14.9 µM (inactive)
- GI50 (OVCAR-4): 14.9 µM (inactive)
- GI50 (PC-3): 43.1 µM (inactive)
- GI50 (RXF 393): 19.3 µM (inactive)
- GI50 (SF-295): 92 µM (inactive)
- GI50 (SK-MEL-28): 40.1 µM (inactive)
- GI50 (SN12C): 35.1 µM (inactive)
- GI50 (SR): 28.8 µM (inactive)
- GI50 (SW-620): 0.387 µM (active)
- GI50 (T47D): 22.4 µM (inactive)
- GI50 (TK-10): 17.9 µM (inactive)

Structure (SMILES): CCOC(=O)CCC(C(=O)OCC)n1nnc2cc(Nc3c(C)[n+]([O-])c4cc(F)c(OCC)cc4[n+]3[O-])ccc21 (configuration not stated)
- GI50 (A549): > 100 µM (inactive)
- GI50 (EKVX): > 100 µM (inactive)
- GI50 (HCT-116): > 100 µM (inactive)
- GI50 (HOP-92): 25.6 µM (inactive)
- GI50 (IGROV-1): > 100 µM (inactive)
- GI50 (MCF7): > 100 µM (inactive)
- GI50 (MOLT-4): > 100 µM (inactive)
- GI50 (NCI-H460): > 100 µM (inactive)
- GI50 (NCI-H522): > 100 µM (inactive)
- GI50 (OVCAR-4): > 100 µM (inactive)
- GI50 (PC-3): > 100 µM (inactive)
- GI50 (RXF 393): 14 µM (inactive)
- GI50 (SF-295): 40.9 µM (inactive)
- GI50 (SN12C): > 100 µM (inactive)
- GI50 (SR): > 100 µM (inactive)
- GI50 (SW-620): > 100 µM (inactive)
- GI50 (T47D): > 100 µM (inactive)
- GI50 (TK-10): 48.3 µM (inactive)

Structure (SMILES): Cc1cc2c(cc1-c1cc3c(cc1C)C(C(C)C)=C(O)C(=O)/C3=C\Nc1c(C)n(C)n(-c3ccccc3)c1=O)/C(=C/Nc1c(C)n(C)n(-c3ccccc3)c1=O)C(=O)C(O)=C2C(C)C
- GI50 (A549): 40.1 µM (inactive)
- GI50 (EKVX): 76.9 µM (inactive)
- GI50 (HCT-116): > 100 µM (inactive)
- GI50 (HOP-92): 78.2 µM (inactive)
- GI50 (IGROV-1): 51.1 µM (inactive)
- GI50 (MCF7): 38.8 µM (inactive)
- GI50 (MOLT-4): 41.2 µM (inactive)
- GI50 (NCI-H460): 54.1 µM (inactive)
- GI50 (NCI-H522): > 100 µM (inactive)
- GI50 (OVCAR-4): > 100 µM (inactive)
- GI50 (PC-3): 66.2 µM (inactive)
- GI50 (RXF 393): 26.1 µM (inactive)
- GI50 (SF-295): > 100 µM (inactive)
- GI50 (SK-MEL-28): > 100 µM (inactive)
- GI50 (SN12C): > 100 µM (inactive)
- GI50 (SR): 39.2 µM (inactive)
- GI50 (SW-620): 61.9 µM (inactive)
- GI50 (T47D): > 100 µM (inactive)

Structure (SMILES): CC(=O)OCCc1cc2ccccc2oc1=O
- GI50 (A549): > 100 µM (inactive)
- GI50 (EKVX): 86.7 µM (inactive)
- GI50 (HCT-116): > 100 µM (inactive)
- GI50 (HOP-92): > 100 µM (inactive)
- GI50 (IGROV-1): > 100 µM (inactive)
- GI50 (MCF7): > 100 µM (inactive)
- GI50 (MOLT-4): > 100 µM (inactive)
- GI50 (NCI-H460): > 100 µM (inactive)
- GI50 (NCI-H522): > 100 µM (inactive)
- GI50 (OVCAR-4): > 100 µM (inactive)
- GI50 (PC-3): > 100 µM (inactive)
- GI50 (RXF 393): > 100 µM (inactive)
- GI50 (SF-295): > 100 µM (inactive)
- GI50 (SK-MEL-28): > 100 µM (inactive)
- GI50 (SN12C): > 100 µM (inactive)
- GI50 (SR): > 100 µM (inactive)
- GI50 (SW-620): > 100 µM (inactive)
- GI50 (T47D): > 100 µM (inactive)

Structure (SMILES): CCc1cccc(C(C)(C)C)c1NC(=S)N/C=C(/C#N)C(N)=O
- GI50 (A549): > 100 µM (inactive)
- GI50 (EKVX): > 100 µM (inactive)
- GI50 (HCT-116): > 100 µM (inactive)
- GI50 (HOP-92): 14 µM (inactive)
- GI50 (IGROV-1): > 100 µM (inactive)
- GI50 (MCF7): > 100 µM (inactive)
- GI50 (MOLT-4): > 100 µM (inactive)
- GI50 (NCI-H460): > 100 µM (inactive)
- GI50 (NCI-H522): > 100 µM (inactive)
- GI50 (OVCAR-4): > 100 µM (inactive)
- GI50 (PC-3): > 100 µM (inactive)
- GI50 (RXF 393): > 100 µM (inactive)
- GI50 (SF-295): > 100 µM (inactive)
- GI50 (SK-MEL-28): > 100 µM (inactive)
- GI50 (SN12C): > 100 µM (inactive)
- GI50 (SR): > 10 µM (inactive)
- GI50 (SW-620): > 100 µM (inactive)
- GI50 (T47D): 95.5 µM (inactive)
